Laboratory results: patent US10286034B2, “Uses of bremelanotide in therapy for female sexual dysfunction” (Palatin Technologies, Inc., priority 2012, dated 2019)

Key:
[1] = system: premenopausal and postmenopausal women with FSAD; assay: Intranasal Phase 2 studies: efficacy, adverse events, discontinuation; type: in vivo, human
Method: In the bremelanotide premenopausal arm, 42.5% of the subjects were discontinued due to hypertension, nausea, vomiting or myalgia. Subjects received a 10 mg intranasal dose of bremelanotide, with premenopausal subjects determined to have a mean plasma concentration of 88.5±51.9 ng/mL and a % CV of 58.6, and postmenopausal subjects determined to have a mean plasma concentration of 93.2±68.5 ng/mL and a % CV of 73.5. The minimum and maximum plasma concentration levels for all women at thirty minutes post dose range from 0.0 ng/mL to 207.0 ng/mL.
Results with premenopausal women in a placebo-controlled, randomized, double-blind, parallel group, at-home exploratory study to evaluate the efficacy and safety of intranasally administered bremelanotide in subjects with female sexual arousal disorder (FSAD) were compared against results in the study of Example 1. In the intranasal study, a total of 76 premenopausal subjects were randomized, with 40 subjects to receive bremelanotide and 36 to receive placebo. Twenty-two subjects treated with bremelanotide and 29 treated with placebo completed the study, with 16 subjects who received bremelanotide (40%) discontinuing from the study due to an adverse event. This compares to the study of Example 1, in which as shown by Table 6 only 8% of subjects on the 1.75 mg subcutaneous dose discontinuing due to an adverse event.

[2] = system: men diagnosed with erectile dysfunction; conditions: subcutaneous injection of 4 or 6 mg; cited from earlier work
[3] = 10 mg intranasal, premenopausal, 40 subjects randomized

CCCC[C@H](NC(C)=O)C(=O)N[C@H]1CC(=O)NCCCC[C@@H](C(=O)O)NC(=O)[C@H](Cc2c[nH]c3ccccc23)NC(=O)[C@H](CCCNC(=N)N)NC(=O)[C@@H](Cc2ccccc2)NC(=O)[C@H](Cc2c[nH]cn2)NC1=O [bremelanotide, Ac-Nle-cyclo(-Asp-His-D-Phe-Arg-Trp-Lys)-OH]
subjects discontinuing from the study due to an adverse event, number [1, 3]: 16
subjects discontinuing from the study due to an adverse event, percent [1, 3]: 40%
subjects reporting at least one adverse event ([1]; intranasal, postmenopausal subjects): 100%
sexual desire and arousal compared to placebo ([1]; intranasal, premenopausal and postmenopausal women with FSAD, two Phase 2 trials): increase sexual desire and arousal compared to placebo
subjects discontinued due to hypertension, nausea, vomiting or myalgia ([1]; intranasal, premenopausal arm): 42.5%
subjects reporting at least one adverse event ([1]; intranasal, premenopausal subjects): 92.5%
erectile response [2]: statistically significant erectile response compared to placebo
